According to ChEMBL document CHEMBL5291721, “A preclinical secondary pharmacology resource illuminates target-adverse drug reaction associations of marketed drugs” (Nat Commun, 2023):

What was measured:
[1] = molecular target: Voltage-gated inwardly rectifying potassium channel KCNH2 (Homo sapiens, UniProt Q12809); type: functional; conditions: read-out: AC50
Mu-type opioid receptor = Mu-type opioid receptor (Homo sapiens, UniProt P35372)
Thromboxane A2 receptor [2] = molecular target: T1, Thromboxane A2 receptor (Homo sapiens, UniProt P21731); type: functional, cell-based
T1 sequence (P21731 whole entry): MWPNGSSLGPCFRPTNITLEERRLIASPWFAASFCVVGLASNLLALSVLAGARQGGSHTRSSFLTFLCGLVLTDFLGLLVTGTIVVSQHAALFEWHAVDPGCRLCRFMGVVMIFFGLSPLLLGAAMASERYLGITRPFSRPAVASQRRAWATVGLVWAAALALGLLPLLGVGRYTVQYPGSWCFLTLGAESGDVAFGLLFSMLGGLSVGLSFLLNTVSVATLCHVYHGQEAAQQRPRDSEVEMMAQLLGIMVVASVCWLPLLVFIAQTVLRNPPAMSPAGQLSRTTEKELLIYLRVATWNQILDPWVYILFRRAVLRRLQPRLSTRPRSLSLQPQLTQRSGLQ

[3] = molecular target: Sodium-dependent dopamine transporter (Homo sapiens, UniProt Q01959)
Estrogen receptor = molecular target: T2, Estrogen receptor (Homo sapiens, UniProt P03372)
T2 sequence (P03372 whole entry): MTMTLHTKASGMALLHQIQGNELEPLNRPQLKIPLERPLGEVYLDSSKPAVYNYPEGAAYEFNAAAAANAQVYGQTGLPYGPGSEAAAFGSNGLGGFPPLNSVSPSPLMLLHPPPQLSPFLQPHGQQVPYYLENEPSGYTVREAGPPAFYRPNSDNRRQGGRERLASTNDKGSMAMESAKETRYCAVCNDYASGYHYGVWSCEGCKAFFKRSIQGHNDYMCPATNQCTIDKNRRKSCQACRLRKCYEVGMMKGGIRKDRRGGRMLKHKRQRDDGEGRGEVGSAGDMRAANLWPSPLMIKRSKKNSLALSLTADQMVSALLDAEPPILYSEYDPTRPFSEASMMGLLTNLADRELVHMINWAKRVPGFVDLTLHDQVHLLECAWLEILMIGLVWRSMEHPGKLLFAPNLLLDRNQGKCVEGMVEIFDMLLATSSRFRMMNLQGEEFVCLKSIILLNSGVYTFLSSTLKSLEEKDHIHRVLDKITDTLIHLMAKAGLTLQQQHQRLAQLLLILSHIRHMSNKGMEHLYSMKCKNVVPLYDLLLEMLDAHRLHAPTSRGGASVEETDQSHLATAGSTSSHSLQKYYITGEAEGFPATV

[4] = molecular target: Gamma-aminobutyric acid receptor subunit alpha-1 (Rattus norvegicus, UniProt P62813)
[5] = molecular target: T3, Amine oxidase [flavin-containing] A (Homo sapiens, UniProt P21397); type: functional
T3 sequence (P21397 whole entry): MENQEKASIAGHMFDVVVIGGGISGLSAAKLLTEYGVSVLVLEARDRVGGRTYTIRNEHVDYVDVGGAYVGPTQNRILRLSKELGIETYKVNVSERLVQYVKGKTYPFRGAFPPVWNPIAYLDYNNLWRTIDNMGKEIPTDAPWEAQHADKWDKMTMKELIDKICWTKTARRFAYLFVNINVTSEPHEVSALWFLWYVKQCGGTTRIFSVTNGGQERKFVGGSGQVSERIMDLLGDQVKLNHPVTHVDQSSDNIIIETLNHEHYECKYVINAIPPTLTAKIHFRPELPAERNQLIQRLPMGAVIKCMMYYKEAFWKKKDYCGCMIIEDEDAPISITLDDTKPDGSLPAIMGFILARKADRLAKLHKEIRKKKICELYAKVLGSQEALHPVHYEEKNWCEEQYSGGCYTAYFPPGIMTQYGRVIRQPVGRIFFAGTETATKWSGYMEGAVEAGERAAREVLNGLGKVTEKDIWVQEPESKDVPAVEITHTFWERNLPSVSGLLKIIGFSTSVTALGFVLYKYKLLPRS

[6] = molecular target: Prostaglandin G/H synthase 1 (Homo sapiens, UniProt P23219); type: functional
[7] = molecular target: Sodium-dependent noradrenaline transporter (Homo sapiens, UniProt P23975)
[8] = molecular target: Sodium-dependent serotonin transporter (Homo sapiens, UniProt P31645)
Acetylcholinesterase = Acetylcholinesterase (Homo sapiens, UniProt P22303); type: functional
D(1A) dopamine receptor = D(1A) dopamine receptor (Homo sapiens, UniProt P21728)
[9] = molecular target: T4, Alpha-1A adrenergic receptor (Homo sapiens, UniProt P35348); type: functional, cell-based
T4 sequence (P35348 whole entry): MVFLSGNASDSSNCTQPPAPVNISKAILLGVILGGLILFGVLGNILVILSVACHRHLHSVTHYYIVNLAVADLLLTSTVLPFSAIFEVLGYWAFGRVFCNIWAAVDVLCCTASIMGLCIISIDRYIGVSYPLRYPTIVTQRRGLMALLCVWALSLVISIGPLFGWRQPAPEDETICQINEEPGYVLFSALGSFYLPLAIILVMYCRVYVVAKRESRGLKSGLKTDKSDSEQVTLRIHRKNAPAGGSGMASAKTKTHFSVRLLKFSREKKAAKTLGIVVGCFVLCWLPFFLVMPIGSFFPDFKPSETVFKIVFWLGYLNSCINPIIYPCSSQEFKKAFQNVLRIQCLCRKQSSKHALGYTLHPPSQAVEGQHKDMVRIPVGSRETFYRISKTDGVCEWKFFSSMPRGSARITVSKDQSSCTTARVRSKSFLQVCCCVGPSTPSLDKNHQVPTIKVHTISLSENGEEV

[10] = molecular target: T4, Alpha-1A adrenergic receptor; type: functional, cell-based; remark: listed apart in the source
Thromboxane A2 receptor [11] = molecular target: T1, Thromboxane A2 receptor; type: functional, cell-based; remark: listed apart in the source
D(3) dopamine receptor = D(3) dopamine receptor (Homo sapiens, UniProt P35462)
Note: assay procedure not described here.

Chain of Sodium-dependent dopamine transporter (Q01959 whole entry): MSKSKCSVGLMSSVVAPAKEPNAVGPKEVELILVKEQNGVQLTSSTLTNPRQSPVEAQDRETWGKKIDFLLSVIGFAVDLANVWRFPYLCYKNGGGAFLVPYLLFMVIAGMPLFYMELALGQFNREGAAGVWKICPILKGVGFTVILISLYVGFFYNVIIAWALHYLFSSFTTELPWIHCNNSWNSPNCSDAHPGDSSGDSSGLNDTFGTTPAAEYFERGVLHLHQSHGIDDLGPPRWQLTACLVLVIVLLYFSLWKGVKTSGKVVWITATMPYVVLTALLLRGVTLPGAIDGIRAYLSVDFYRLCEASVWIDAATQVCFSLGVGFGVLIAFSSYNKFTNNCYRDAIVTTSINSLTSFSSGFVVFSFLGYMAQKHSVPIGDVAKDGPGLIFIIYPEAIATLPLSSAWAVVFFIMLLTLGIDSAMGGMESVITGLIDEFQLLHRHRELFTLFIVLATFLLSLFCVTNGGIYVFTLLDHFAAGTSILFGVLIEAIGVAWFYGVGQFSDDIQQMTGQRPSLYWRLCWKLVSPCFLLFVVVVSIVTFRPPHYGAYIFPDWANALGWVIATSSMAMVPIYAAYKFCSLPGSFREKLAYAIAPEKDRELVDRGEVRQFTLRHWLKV
Chain of Gamma-aminobutyric acid receptor subunit alpha-1 (P62813 whole entry): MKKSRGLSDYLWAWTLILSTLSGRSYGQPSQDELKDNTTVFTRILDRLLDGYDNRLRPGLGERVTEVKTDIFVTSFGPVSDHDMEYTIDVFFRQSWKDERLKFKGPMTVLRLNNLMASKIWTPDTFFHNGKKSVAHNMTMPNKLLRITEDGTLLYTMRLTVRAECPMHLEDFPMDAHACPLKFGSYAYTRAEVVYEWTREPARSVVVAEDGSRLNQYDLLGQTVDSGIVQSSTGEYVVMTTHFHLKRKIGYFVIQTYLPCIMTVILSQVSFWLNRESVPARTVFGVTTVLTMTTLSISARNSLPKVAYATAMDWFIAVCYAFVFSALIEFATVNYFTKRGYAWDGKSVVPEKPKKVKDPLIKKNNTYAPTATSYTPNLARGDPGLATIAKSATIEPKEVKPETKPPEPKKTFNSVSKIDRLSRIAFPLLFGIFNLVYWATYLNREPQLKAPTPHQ
Chain of Acetylcholinesterase (P22303 whole entry): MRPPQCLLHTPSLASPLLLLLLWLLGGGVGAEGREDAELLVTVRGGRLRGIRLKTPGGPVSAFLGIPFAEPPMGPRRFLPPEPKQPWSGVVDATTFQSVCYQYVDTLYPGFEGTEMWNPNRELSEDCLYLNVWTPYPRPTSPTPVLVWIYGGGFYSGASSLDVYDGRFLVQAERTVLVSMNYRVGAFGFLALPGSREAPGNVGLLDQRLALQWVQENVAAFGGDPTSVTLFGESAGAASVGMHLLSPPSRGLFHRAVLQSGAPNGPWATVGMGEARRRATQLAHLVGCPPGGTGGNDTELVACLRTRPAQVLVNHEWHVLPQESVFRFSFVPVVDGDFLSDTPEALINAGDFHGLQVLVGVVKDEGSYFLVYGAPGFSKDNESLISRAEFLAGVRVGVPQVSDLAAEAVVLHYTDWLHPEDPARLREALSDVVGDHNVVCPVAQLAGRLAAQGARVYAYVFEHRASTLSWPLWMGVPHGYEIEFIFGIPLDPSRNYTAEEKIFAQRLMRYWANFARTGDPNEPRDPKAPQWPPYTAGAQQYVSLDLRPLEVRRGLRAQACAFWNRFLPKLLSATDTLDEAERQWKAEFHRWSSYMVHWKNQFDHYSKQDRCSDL
Chain of Sodium-dependent noradrenaline transporter (P23975 whole entry): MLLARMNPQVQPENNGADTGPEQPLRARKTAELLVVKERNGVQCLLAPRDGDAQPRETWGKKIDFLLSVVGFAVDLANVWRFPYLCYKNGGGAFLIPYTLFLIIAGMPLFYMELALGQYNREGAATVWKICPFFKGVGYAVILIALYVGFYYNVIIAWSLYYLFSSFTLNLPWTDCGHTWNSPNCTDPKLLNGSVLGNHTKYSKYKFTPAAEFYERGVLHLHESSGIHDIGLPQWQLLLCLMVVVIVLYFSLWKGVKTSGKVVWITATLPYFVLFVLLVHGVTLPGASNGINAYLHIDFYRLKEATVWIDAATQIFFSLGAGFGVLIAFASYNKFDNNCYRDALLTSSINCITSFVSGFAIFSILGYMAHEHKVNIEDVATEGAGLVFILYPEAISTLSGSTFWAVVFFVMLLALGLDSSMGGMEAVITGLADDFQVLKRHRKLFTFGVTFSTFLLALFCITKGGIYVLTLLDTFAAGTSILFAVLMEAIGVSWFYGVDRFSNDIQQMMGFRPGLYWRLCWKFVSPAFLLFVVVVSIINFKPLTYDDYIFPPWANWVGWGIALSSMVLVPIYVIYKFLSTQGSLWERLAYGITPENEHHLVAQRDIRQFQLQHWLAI
Chain of D(1A) dopamine receptor (P21728 whole entry): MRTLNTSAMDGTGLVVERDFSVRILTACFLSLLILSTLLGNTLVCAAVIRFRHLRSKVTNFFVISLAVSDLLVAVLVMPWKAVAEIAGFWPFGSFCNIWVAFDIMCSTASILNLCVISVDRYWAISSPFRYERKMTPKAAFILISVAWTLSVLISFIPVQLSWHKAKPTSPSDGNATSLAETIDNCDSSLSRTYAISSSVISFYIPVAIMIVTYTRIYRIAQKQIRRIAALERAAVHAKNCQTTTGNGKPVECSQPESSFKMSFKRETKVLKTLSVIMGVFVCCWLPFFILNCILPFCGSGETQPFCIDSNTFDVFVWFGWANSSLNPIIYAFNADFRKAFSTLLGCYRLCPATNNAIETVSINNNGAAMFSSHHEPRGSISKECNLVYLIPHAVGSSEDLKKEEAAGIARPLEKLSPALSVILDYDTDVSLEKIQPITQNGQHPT
Chain of Sodium-dependent serotonin transporter (P31645 whole entry): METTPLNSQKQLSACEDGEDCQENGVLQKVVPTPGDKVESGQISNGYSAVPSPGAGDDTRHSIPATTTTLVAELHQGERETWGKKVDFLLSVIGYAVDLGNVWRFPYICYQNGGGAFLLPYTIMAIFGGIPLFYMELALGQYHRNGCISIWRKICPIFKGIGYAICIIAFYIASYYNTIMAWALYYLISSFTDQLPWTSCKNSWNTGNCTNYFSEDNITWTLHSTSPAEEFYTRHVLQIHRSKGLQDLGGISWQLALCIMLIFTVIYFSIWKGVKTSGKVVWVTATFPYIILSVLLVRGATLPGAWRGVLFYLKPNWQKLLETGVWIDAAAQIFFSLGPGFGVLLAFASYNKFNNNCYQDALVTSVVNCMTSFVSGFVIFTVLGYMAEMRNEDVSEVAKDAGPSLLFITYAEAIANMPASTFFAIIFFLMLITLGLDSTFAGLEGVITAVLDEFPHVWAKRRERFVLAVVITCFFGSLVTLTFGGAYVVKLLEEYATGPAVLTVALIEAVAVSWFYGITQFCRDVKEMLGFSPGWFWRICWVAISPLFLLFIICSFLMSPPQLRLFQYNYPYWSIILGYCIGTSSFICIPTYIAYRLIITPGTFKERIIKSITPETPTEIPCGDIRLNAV
Chain of D(3) dopamine receptor (P35462 whole entry): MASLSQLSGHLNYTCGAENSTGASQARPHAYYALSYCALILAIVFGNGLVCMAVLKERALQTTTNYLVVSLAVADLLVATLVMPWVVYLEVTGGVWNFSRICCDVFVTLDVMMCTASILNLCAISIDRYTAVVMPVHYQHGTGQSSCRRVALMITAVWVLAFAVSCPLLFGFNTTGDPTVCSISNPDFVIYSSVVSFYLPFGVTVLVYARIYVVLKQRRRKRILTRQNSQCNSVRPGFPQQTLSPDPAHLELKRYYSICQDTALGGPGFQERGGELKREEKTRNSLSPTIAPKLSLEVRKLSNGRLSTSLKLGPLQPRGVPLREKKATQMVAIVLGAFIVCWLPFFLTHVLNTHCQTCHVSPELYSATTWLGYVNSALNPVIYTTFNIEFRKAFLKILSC
Chain of Voltage-gated inwardly rectifying potassium channel KCNH2 (Q12809 whole entry): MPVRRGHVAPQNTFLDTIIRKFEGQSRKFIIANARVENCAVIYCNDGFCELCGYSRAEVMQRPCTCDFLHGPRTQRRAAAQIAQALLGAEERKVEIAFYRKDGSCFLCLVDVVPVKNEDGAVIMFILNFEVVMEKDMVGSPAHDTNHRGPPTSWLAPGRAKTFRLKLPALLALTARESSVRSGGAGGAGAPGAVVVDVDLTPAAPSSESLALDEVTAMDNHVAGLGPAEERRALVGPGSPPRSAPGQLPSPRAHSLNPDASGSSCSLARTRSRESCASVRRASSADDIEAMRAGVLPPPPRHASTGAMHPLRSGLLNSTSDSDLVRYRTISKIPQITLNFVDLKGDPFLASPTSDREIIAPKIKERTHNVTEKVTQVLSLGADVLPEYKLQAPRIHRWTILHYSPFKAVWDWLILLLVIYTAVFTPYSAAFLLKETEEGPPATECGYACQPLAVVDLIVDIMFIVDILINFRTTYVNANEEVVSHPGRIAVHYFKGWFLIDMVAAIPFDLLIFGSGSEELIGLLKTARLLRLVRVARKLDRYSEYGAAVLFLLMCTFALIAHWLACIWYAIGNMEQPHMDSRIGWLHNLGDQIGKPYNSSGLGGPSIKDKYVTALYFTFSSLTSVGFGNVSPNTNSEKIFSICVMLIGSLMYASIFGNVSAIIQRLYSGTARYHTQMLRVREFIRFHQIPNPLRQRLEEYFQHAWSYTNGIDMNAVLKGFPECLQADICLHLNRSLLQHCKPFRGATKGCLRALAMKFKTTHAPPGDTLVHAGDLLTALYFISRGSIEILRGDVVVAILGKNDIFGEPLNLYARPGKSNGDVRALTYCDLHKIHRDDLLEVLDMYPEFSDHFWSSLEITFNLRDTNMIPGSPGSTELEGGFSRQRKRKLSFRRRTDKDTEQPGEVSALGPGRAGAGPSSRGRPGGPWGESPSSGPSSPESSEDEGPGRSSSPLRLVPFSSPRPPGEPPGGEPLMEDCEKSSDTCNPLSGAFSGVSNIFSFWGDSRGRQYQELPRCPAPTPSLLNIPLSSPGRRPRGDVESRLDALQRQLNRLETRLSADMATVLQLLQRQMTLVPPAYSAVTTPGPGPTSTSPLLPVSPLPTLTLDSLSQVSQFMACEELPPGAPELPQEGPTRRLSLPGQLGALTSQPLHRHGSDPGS

Compound: COc1cc(NCc2ccc3nc(N)nc(N)c3c2C)cc(OC)c1OC [TRIMETREXATE]
- AC50 [1]: 2.16 µM
- AC50 (Mu-type opioid receptor): 1.2 µM
- AC50 (Thromboxane A2 receptor [2]): > 30 µM
- AC50 [3]: 9.54 µM
- AC50 (Estrogen receptor): 23 µM
- AC50 [4]: > 30 µM
- AC50 [5]: 3.8 µM
- AC50 [6]: 28.1 µM
- AC50 [7]: 12.3 µM
- AC50 [8]: > 30 µM
- AC50 (Acetylcholinesterase): 1.62 µM
- AC50 (D(1A) dopamine receptor): 1.94 µM
- AC50 [9]: > 30 µM
- AC50 [10]: > 30 µM
- AC50 (Thromboxane A2 receptor [11]): > 30 µM
- AC50 (D(3) dopamine receptor): 2.67 µM
